Data: PubChem BioAssay AID330 (DTP/NCI, 2004)
Values joined by “and” are separate entries in the source; they are usually repeats but may differ in a detail not shown here. Equal values may be shown once. Inconclusive results and toxic doses are left out. The calls were made as follows: active = survival T/C of 150% or more; inactive = T/C below 125% in these data.

Tested on: P388 leukemia ip, CD2F1 mice, survival T/C
Experiment: NCI In Vivo Anticancer Drug Screen. Data for tumor model P388 Leukemia (intraperitoneal) in CD2F1 (CDF1) mice
Conditions: endpoint: median survival time, higher = longer survival
How it was run: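 Mice carrying the transplanted tumor received test compound or vehicle. Survival was recorded in each group, and the value is the treated-group measurement divided by that of the vehicle-treated control group.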

[1] = dose: 60.0 mg/kg/injection, schedule: Q01DX005 (ip), vehicle: saline with Tween-80
[2] = dose: 120.0 mg/kg/injection, schedule: Q01DX005 (ip), vehicle: saline with Tween-80
[3] = dose: 240.0 mg/kg/injection, schedule: Q01DX005 (ip), vehicle: saline with Tween-80
[4] = dose: 50.0 mg/kg/injection, schedule: Q01DX009 (ip), vehicle: saline with Tween-80
[5] = dose: 100.0 mg/kg/injection, schedule: Q01DX009 (ip), vehicle: saline with Tween-80
[6] = dose: 200.0 mg/kg/injection, schedule: Q01DX009 (ip), vehicle: saline with Tween-80

Measured: T/C

COc1ccc(C(c2cc3c(cc2O)OCO3)N2CCOCC2)cc1 (centres undefined)
inactive: [1] 118 % of control | [2] 109 % of control and 119 % of control | [3] 120 % of control

O=C(C1CO1)C(Cl)(Cl)Cl (centres undefined)
inactive: dose: 3.12 mg/kg/injection, schedule: Q01DX001 (ip), vehicle: saline 107 % of control | dose: 6.25 mg/kg/injection, schedule: Q01DX001 (ip), vehicle: saline 107 % of control | dose: 12.5 mg/kg/injection, schedule: Q01DX001 (ip), vehicle: saline 116 % of control | dose: 25.0 mg/kg/injection, schedule: Q01DX001 (ip), vehicle: saline 120 % of control and 122 % of control | dose: 50.0 mg/kg/injection, schedule: Q01DX001 (ip), vehicle: saline 113 % of control | dose: 100.0 mg/kg/injection, schedule: Q01DX001 (ip), vehicle: saline 111 % of control

CCS1=C(C(C)=O)C(=O)O[C@H](C)C1 (some centres undefined)
inactive: dose: 50.0 mg/kg/injection, schedule: Q01DX005 (ip), vehicle: saline 100 % of control | dose: 100.0 mg/kg/injection, schedule: Q01DX005 (ip), vehicle: saline 98 % of control | dose: 200.0 mg/kg/injection, schedule: Q01DX005 (ip), vehicle: saline 115 % of control

COC(=O)C(CSCc1ccccc1)NC(=O)c1csc(CCNC(=O)c2ccccc2)n1 (centres undefined)
inactive: dose: 12.5 mg/kg/injection, schedule: Q01DX009 (ip), vehicle: DMSO 99 % of control | dose: 25.0 mg/kg/injection, schedule: Q01DX009 (ip), vehicle: DMSO 99 % of control | dose: 50.0 mg/kg/injection, schedule: Q01DX009 (ip), vehicle: DMSO 100 % of control | dose: 100.0 mg/kg/injection, schedule: Q01DX009 (ip), vehicle: DMSO 101 % of control | dose: 200.0 mg/kg/injection, schedule: Q01DX009 (ip), vehicle: DMSO 96 % of control

C/C1=C/C(C)C(O)C(O)C(=O)C2(C)CNC3=C(O2)C(=O)c2c(cc(C)c(O)c2C1=O)C3=O (centres undefined)
inactive: dose: 0.5 mg/kg/injection, schedule: Q01DX009 (ip), vehicle: distilled water + Tween-80 102 % of control and 122 % of control | dose: 1.0 mg/kg/injection, schedule: Q01DX009 (ip), vehicle: distilled water + Tween-80 106 % of control and 117 % of control | dose: 2.0 mg/kg/injection, schedule: Q01DX009 (ip), vehicle: distilled water + Tween-80 108 % of control | dose: 4.0 mg/kg/injection, schedule: Q01DX009 (ip), vehicle: distilled water + Tween-80 102 % of control and 103 % of control | dose: 16.0 mg/kg/injection, schedule: Q01DX009 (ip), vehicle: distilled water + Tween-80 103 % of control and 107 % of control | dose: 32.0 mg/kg/injection, schedule: Q01DX009 (ip), vehicle: distilled water + Tween-80 101 % of control and 103 % of control | dose: 4.0 micrograms/kg/injection, schedule: Q01DX009 (ip), vehicle: water 115 % of control | dose: 8.0 micrograms/kg/injection, schedule: Q01DX009 (ip), vehicle: water 99 % of control | dose: 16.0 micrograms/kg/injection, schedule: Q01DX009 (ip), vehicle: water 98 % of control | dose: 32.0 micrograms/kg/injection, schedule: Q01DX009 (ip), vehicle: water 99 % of control | dose: 64.0 micrograms/kg/injection, schedule: Q01DX009 (ip), vehicle: saline + alcohol 100 % of control | dose: 64.0 micrograms/kg/injection, schedule: Q01DX009 (ip), vehicle: water 102 % of control | dose: 128.0 micrograms/kg/injection, schedule: Q01DX009 (ip), vehicle: saline + alcohol 100 % of control | dose: 256.0 micrograms/kg/injection, schedule: Q01DX009 (ip), vehicle: saline + alcohol 103 % of control

Cc1ccc(/C=C/C(=N/Nc2ccccc2)C(C)CN(C)C)cc1 (centres undefined)
inactive: [1] 100 % of control | [2] 89 % of control

COc1ccccc1C1OC(N)=C(O)C1=O (centres undefined)
inactive: dose: 60.0 mg/kg/injection, schedule: Q01DX005 (ip), vehicle: Klucel (hydroxypropylcellulose) (HPC) 97 % of control | dose: 120.0 mg/kg/injection, schedule: Q01DX005 (ip), vehicle: Klucel (hydroxypropylcellulose) (HPC) 103 % of control | dose: 240.0 mg/kg/injection, schedule: Q01DX005 (ip), vehicle: Klucel (hydroxypropylcellulose) (HPC) 104 % of control

N#CSc1c(-c2ccccc2)c2c(N)[nH]c(=O)nc2[nH]c1=O
inactive: dose: 15.0 mg/kg/injection, schedule: Q01DX005 (ip), vehicle: saline with Tween-80 107 % of control | dose: 30.0 mg/kg/injection, schedule: Q01DX005 (ip), vehicle: saline with Tween-80 99 % of control | [1] 90 % of control

Cc1cc(Cl)ccc1N=Cc1ccc(OCc2ccccc2)cc1
inactive: [4] 92 % of control | [5] 90 % of control | [6] 88 % of control

CCOC(=O)c1cc(OCC)c(OCC)c(OCC)c1N
inactive: [4] 100 % of control | [5] 100 % of control | [6] 111 % of control

Cc1cc2c(c(O)c1O)/C(=C/N=NC(N)=S)C(Cl)=N2
inactive: dose: 100.0 mg/kg/injection, schedule: Q01DX001 (ip), vehicle: Klucel (hydroxypropylcellulose) (HPC) 101 % of control | dose: 200.0 mg/kg/injection, schedule: Q01DX001 (ip), vehicle: Klucel (hydroxypropylcellulose) (HPC) 102 % of control | dose: 400.0 mg/kg/injection, schedule: Q01DX001 (ip), vehicle: Klucel (hydroxypropylcellulose) (HPC) 100 % of control

O=C(NCCO)Nc1ccc2c(c1)OCCOCCOCCOCCO2
inactive: dose: 30.0 mg/kg/injection, schedule: Q01DX005 (ip), vehicle: saline 98 % of control | dose: 60.0 mg/kg/injection, schedule: Q01DX005 (ip), vehicle: saline 101 % of control | dose: 120.0 mg/kg/injection, schedule: Q01DX005 (ip), vehicle: saline 99 % of control | dose: 240.0 mg/kg/injection, schedule: Q01DX005 (ip), vehicle: saline 99 % of control

O=C(Nc1cccc([N+](=O)[O-])c1)OCc1ccc2c(c1)OCO2
inactive: [1] 91 % of control | [2] 90 % of control

O=C1C2C3CCC(O3)C2C(=O)N1SC(Cl)(Cl)Cl (centres undefined)
inactive: dose: 3.12 mg/kg/injection, schedule: Q01DX009 (ip), vehicle: saline 101 % of control | dose: 6.25 mg/kg/injection, schedule: Q01DX009 (ip), vehicle: saline 108 % of control | dose: 12.5 mg/kg/injection, schedule: Q01DX009 (ip), vehicle: saline 100 % of control

CN1N=C(c2ccccc2O)/C(=C/c2c(-c3ccccc3O)[nH]n(C)c2=O)C1=O
inactive: [1] 94 % of control | [2] 86 % of control | [3] 87 % of control

CC1=C(CCC(=O)O)c2cc3nc(cc4[nH]c(cc5[nH]c(cc1n2)c(C)c5C1CC1C(=O)O)c(C)c4C1CC1C(=O)O)C(C)=C3CCC(=O)O (centres undefined)
inactive: dose: 50.0 mg/kg/injection, schedule: Q01DX005 (ip), vehicle: Klucel (hydroxypropylcellulose) (HPC) 106 % of control | dose: 100.0 mg/kg/injection, schedule: Q01DX005 (ip), vehicle: Klucel (hydroxypropylcellulose) (HPC) 101 % of control | dose: 200.0 mg/kg/injection, schedule: Q01DX005 (ip), vehicle: Klucel (hydroxypropylcellulose) (HPC) 95 % of control

CCN(c1ccccc1)S(=O)(=O)c1cc(N)ccc1C
inactive: dose: 25.0 mg/kg/injection, schedule: Q01DX009 (ip), vehicle: Klucel (hydroxypropylcellulose) (HPC) 101 % of control | dose: 50.0 mg/kg/injection, schedule: Q01DX009 (ip), vehicle: Klucel (hydroxypropylcellulose) (HPC) 100 % of control | dose: 100.0 mg/kg/injection, schedule: Q01DX009 (ip), vehicle: Klucel (hydroxypropylcellulose) (HPC) 110 % of control | dose: 200.0 mg/kg/injection, schedule: Q01DX009 (ip), vehicle: Klucel (hydroxypropylcellulose) (HPC) 97 % of control | dose: 400.0 mg/kg/injection, schedule: Q01DX009 (ip), vehicle: Klucel (hydroxypropylcellulose) (HPC) 93 % of control

CC(C)(C)OC(=O)NC(COCc1ccccc1)C(=O)O (centres undefined)
inactive: dose: 50.0 mg/kg/injection, schedule: Q01DX005 (ip), vehicle: saline with Tween-80 103 % of control | dose: 100.0 mg/kg/injection, schedule: Q01DX005 (ip), vehicle: saline with Tween-80 98 % of control | dose: 200.0 mg/kg/injection, schedule: Q01DX005 (ip), vehicle: saline with Tween-80 97 % of control

COc1cccc(C(Nc2nncs2)Nc2nncs2)c1OC
inactive: [1] 87 % of control | [2] 91 % of control | [3] 100 % of control
